Source: patent US10294230B2, “3,3-difluoropiperidine carbamate heterocyclic compounds as NR2B NMDA receptor antagonists” (Rugen Holdings (Cayman) Limited, priority 2015, dated 2019)

Legend:
NR2B = NR2B (Homo sapiens (Human), UniProt Q05586+Q13224); settings: cited from earlier work
[1] = system: immobility in forced swim test; experiment: Forced Swim Test (FST) in mice; assay type: in vivo
From the text: (§1) The forced swim test (FST) also known at the behavioural despair test was used to evaluate antidepressant activity (Porsolt et al., 1977 Arch. Int. Pharmacodyn. 229: 327-336, Porsolt et al., 1977, Eur. J. Pharmacol. 47:379-391). Mice or rats that are forced to swim in a situation from which they cannot escape, rapidly become immobile. Drugs with antidepressant activity, such as imipramine, reduce the amount of time spent in the immobile state. Therefore, the amount of immobility time during a test conducted after drug administration represents a useful indicator of antidepressant activity (Lucki et al 2001 Psychopharmacology 155:315-322; Porsolt et al., 1977, Nature 266:730-732).
(§2) Test compound E1-8.2 was administered as the free base.
Mice were evaluated in a single swimming test session of 6 minutes. Mice were placed in a transparent plastic cylinder 24 cm high with a diameter of 13 cm containing 10 cm of water with ambient temperature control generally from 22±2° C. Mice were placed in the water for 6 minutes and the duration of immobility during the last 4 minutes was measured.
Animals were observed by a blinded observer. The observer judged the animal to be immobile when it ceased all activity (struggling, swimming, jumping etc.) and floated passively atop the water. The amount of time each animal spent in the immobile state (and the latency to the first bout of immobility) was recorded and used for statistical analysis of compound effect. Group differences were evaluated by student's t-test (reference substance) or one-way ANOVA followed by post-hoc Dunnett's test (test substances). […]
Male mice (strain NLMN) weighing 25-35 g were used for testing. […] The mice were videotaped for 6 minutes, and the last 4 minutes of video were analyzed by a blinded observer off-line. […] The amount of time each animal spent in the immobile state was recorded and used for statistical analysis of compound effect. Group differences were evaluated by student's t-test or one-way ANOVA followed by post-hoc Dunnett's test. […]

[2] = system: immobility in forced swim test; experiment: Forced Swim Test (FST) in rats; assay type: in vivo
From the text: as §1, §2
Male Wistar rats weighing 197-251 g were used for the rat test. Rats were evaluated according to a two-session procedure with a swimming session of 15 minutes on the first day of the experiment (Session 1) followed 24 hours later by a 5-minute swimming test (Session 2). […] Rats were placed in the water 24 h later for 5 minutes (Session 2) and the duration of immobility was measured.
Animals were observed by a blinded observer. […] The amount of time each animal spent in the immobile state (and the latency to the first bout of immobility) was recorded and used for statistical analysis of compound effect. […]

NR2B, sequence (Q13224 27-1484, species assumed, other chains not shown): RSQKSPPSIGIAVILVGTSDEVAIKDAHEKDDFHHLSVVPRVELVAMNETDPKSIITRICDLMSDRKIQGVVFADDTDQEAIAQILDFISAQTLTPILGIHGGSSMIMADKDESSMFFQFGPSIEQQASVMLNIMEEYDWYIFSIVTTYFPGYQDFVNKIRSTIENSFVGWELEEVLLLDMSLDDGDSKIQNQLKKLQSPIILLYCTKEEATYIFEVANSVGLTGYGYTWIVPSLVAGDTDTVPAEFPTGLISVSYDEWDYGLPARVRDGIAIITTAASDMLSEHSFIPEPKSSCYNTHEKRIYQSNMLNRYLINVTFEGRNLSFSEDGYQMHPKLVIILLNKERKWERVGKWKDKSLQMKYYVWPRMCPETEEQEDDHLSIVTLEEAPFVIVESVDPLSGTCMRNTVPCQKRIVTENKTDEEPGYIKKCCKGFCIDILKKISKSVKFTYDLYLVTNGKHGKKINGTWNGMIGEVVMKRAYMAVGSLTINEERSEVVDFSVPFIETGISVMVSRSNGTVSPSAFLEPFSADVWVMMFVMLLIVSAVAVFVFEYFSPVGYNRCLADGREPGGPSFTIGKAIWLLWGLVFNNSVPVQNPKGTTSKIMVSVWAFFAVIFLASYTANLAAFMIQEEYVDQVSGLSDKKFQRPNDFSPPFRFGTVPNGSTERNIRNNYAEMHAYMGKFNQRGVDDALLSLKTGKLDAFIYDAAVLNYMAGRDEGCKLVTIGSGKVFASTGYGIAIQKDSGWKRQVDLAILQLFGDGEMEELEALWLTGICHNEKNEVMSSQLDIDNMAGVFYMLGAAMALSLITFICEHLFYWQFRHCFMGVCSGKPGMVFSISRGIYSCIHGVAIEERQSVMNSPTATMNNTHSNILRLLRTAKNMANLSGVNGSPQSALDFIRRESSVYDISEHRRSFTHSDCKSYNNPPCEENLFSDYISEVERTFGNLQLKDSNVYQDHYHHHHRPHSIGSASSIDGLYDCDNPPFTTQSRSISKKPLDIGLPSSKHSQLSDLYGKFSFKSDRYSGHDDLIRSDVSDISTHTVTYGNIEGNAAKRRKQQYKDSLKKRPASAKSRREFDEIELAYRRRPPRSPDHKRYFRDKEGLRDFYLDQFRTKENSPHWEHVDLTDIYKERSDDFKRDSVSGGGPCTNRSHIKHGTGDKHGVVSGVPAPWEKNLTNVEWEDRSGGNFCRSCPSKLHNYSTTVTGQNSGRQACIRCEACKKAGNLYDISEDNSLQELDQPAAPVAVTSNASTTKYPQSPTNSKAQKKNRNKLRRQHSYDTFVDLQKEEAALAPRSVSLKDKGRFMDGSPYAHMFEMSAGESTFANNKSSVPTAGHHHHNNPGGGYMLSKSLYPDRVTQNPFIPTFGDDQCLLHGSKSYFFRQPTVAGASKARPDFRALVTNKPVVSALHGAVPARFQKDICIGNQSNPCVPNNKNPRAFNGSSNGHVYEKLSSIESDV

Question: With `Cc1ccc(COC(=O)N2CCC(CNc3ncccn3)C(F)C2)cc1` (single isomer, unassigned) [3R,4S enantiomer] as the compound, how does the “potency against NR2B” value (NR2B) read?
Answer: The value was 25.5 nM.

Question: Which results are given for `CN(C)CCCN1c2ccccc2CCc2ccccc21` [imipramine]?
Answer: immobility time, antidepressant activity ([1]; 32 mpk i.p. once 30 min before the test): expected antidepressant activity; immobility time, antidepressant activity ([1]; 64 mpk p.o. once 60 min before the test): expected antidepressant activity; immobility time, antidepressant activity ([1]; 128 mpk p.o. once 60 minutes before the test on Day 7): expected antidepressant activity; immobility time, antidepressant activity ([2]; 32 mpk i.p. 3 times: 24 h, 4 h and 30 min before Session 2): expected antidepressant activity; immobility time, antidepressant activity ([2]; 64 mpk p.o. 3 times: 24 h, 4 h and 60 min before Session 2): expected antidepressant activity
